Data from US20180133211A1, “METHODS AND MATERIALS FOR PROMOTING BONE FORMATION” (Mayo Foundation for Medical Education and Research, priority 2015, published 2018).

Experiments:
RAW 264.7 cells = experiment: RT-qPCR mRNA expression; format: cell-based, mouse; conditions: RAW 264.7 induced with RANKL and MCSF, co-treatment with SFN
Description: Total RNA was extracted using the SV Total RNA Isolation kit (Promega) following the supplier's instructions. cDNA was synthesized from about 0.5 μg RNA using the First Strand cDNA Synthesis kit (Roche) as described by the supplier. The resulting cDNAs were subjected to quantitative PCR amplification with a real-time cycler using the QUANTITECT™ SYBR® Green PCR Kit (Qiagen, Hilden, Germany) for the genes Alpl, Fas, Lox, Tet1, Tet2, and TAQMAN® Gene expression Master Mix (Applied Biosystems, Foster City, Calif., USA) for measuring Runx2, Bglap2, Colla1, Tnfsf11, and 18S rRNA expression (for primers, see Table 1). SYBR-Green RT-qPCR was started with an initial denaturation step at 95° C. for 10 minutes and then continued with 45 cycles consisting of 30 seconds denaturation at 95° C., 30 seconds annealing at primer-specific temperatures, and extension at 72° C. For measurement of the TAQMAN® assays, an initial denaturation at 95° C. for 10 minutes was applied, followed by 45 cycles alternating 60 seconds at 60° C. and 15 seconds at 95° C. All RT-qPCR assays were performed in triplicate, and expression was evaluated using the comparative quantification method (Pfaffl, Nucleic Acids Res., 29:e45 (2001)).

MC3T3-E1 cells = experiment: ECM mineralization by Alizarin Red stain; format: cell-based, mouse; conditions: for matrix mineralization (Alizarin Red): MC3T3-E1, as early as 14 days of treatment
Description: Differentiation of MC3T3-E1 cells was induced with 50 μg/mL ascorbic acid (Sigma-Aldrich) and 5 mM β-glycerophosphate (Sigma-Aldrich) in medium containing 5% FBS. RAW 264.7 cells were cultured in Dulbecco's modified Eagle's medium (DMEM, Invitrogen, Carlsbad, Calif., USA) supplemented with 10% fetal bovine serum (Hyclone) and 2 mM glutamine (Gibco, Carlsbad, Calif., USA). Cells were seeded in culture dishes at a density of 20,000 cells/cm^2 and cultured overnight unless stated otherwise. Before cells were treated with compounds, the culture medium was changed.
Calvariae from 2 to 3-day-old and from 7-week old C57BL/6 mice were dissected aseptically. The calvarial bone explants were cultured in 48-well plates in α-MEM (Biochrom) containing 10% FCS (Biochrom), 50 μg/mL ascorbic acid (Sigma-Aldrich), 5 mM β-glycerophosphate (Sigma-Aldrich), and 10 μg/mL gentamicin (Sigma-Aldrich). The day after dissection, medium was changed, and a part of the explants was treated with 3 μM L- or DL-SFN for 12 days. Thereafter, one part of the calvariae were fixed for 1 hour in 4% para-formaldehyde (PFA), and mineralization was measured by Alizarin Red S stain (Sigma-Aldrich). For this purpose, Alizarin Red S dye was extracted using 10% cetylpyridinium chloride (CPC) in 10 mM sodiumphosphate (pH=7.0) for 45 minutes at room temperature. Alizarin Red S absorbance was measured at 562 nm in a multi-plate reader (Tecan, Maennedorf, Switzerland) and normalized to total protein amount measured by bicinchoninic acid assay (Thermo Fisher Scientific, Waltham, Mass., USA). From the other part of the calvariae, total RNA was extracted.

[1] = test system: primary mouse osteoclasts; experiment: Osteoclastic resorption on dentin slices; format: cell-based; conditions: 3 μM L- or DL-SFN, 14 days
Description: Primary mouse tissues or cells were obtained according to procedures that conform to the regulatory guidelines of the Institutional Animal Care and Use Committee of the Medical University of Vienna. Primary mouse osteoclasts were harvested from 8-week old C57BL/6 mice, which were sacrificed, and bone marrow cells were isolated from tibias and femurs under aseptic conditions and cultured in α-MEM (Biochrom) containing 10% FCS (Biochrom), […] (Sigma-Aldrich) and macrophage colony stimulating factor (MCSF1, 30 ng/mL). After 24 hours, non-adherent cells were seeded onto sterile, 300 μm thick dentin slices (elephant ivory) at 700,000 cells/cm^2 in αMEM supplemented with 10% FBS, 2 mM 1-glutamine, 30 μg/mL gentamycin, 20 ng/mL M-CSF, and 2 ng/mL RANKL (R&D Systems, Minneapolis, Minn., USA). Culture medium was changed twice per week, and cells were cultured for 14 days.
After culturing the primary mouse osteoclasts for 14 days on dentin slices in the presence or absence of 3 μM L- or DL-SFN, substrates were put into water, sonicated for 10 minutes to remove living cells and air-dried. Photographs were obtained by reflected light microscopy (objective 20×) of the entire substrate surface, and resorption trails and pits were analyzed and quantified with standard image analysis software (ImageJ, rsbweb.nih.gov/ij/). […]

[2] = test system: sham operated or ovariectomized (OVX) C57B16/J female mice; experiment: In vivo analysis of SFN effects on bone, μCT; design: species or system mouse; conditions: OVX mice; mitigation of the OVX-dependent decrease of trabecular number
Description: Analysis of SFN on mice was performed using a protocol similar to that described elsewhere (Kong et al., Arthritis Rheum., 62:159-170 (2010)). In the experimental setting herein, eight week old sham operated or ovariectomized (OVX) C57B16/J female mice were purchased from Charles River laboratories. Mice were injected with 7.5 mM DL-SFN (200 μL of SFN at a concentration of 63.8 mg/mL/kg dissolved in ethanol and further diluted in PBS) intraperitoneally every other day for five weeks. Control mice received vehicle alone.
Images from tibias fixed in 4% formaldehyde were acquired in a SkyScan 1174 with a resolution of 6 μm (X-ray voltage 50 kV). Image reconstruction was performed by applying a modified Feldkamp algorithm using the Skyscan Nrecon software. 3D and 2D morphometric parameters were calculated for the trabecular bone (350 consecutive slides, 6 μm thick) starting from 300 μm from the growth plate. Threshold values were applied for segmenting trabecular bone corresponding to bone mineral density values of 0.6/cm^3 calcium hydroxyapatite. 3D parameters were based on analysis of a Marching Cubes type model with a rendered surface. Calculation all of 2D areas and perimeters was based on the Pratt algorithm (Pratt et al., IEEE Trans. Biomed. Eng., 38, 306-309 (1991). Bone structural variables and nomenclature were used according to Bouxsein et al. (J. Bone Miner. Res., 25:1468-1486 (2010)).

MC3T3 cells = experiment: Osteogenic differentiation of MC3T3 cells under EZH2 inhibition; format: cell-based, mouse; conditions: 1 μM UNC1999
Description: MC3T3 cells were seeded in 6-well plates in maintenance medium (10,000 cells/cm^2). The following day, maintenance medium was replaced with osteogenic medium (αMEM supplemented with 50 μg/mL ascorbic acid (Sigma) and 4 mM beta glycerol phosphate (Sigma)) containing vehicle or EZH2 inhibitor. Three days later, vehicle or EZH2 inhibitors were added again with osteogenic medium. On day six, EZH2 inhibitor and vehicle were removed, and fresh osteogenic medium added.
Media were changed every three days. RNA was isolated at indicated times. On day 6, cells were fixed in 10% neutral buffered formalin and stained with 5-bromo-4-chloro-3-indolyl-phosphate/nitro blue tetrazolium to monitor the enzymatic activity of alkaline phosphatase (Promega). On day 14 (AMCs) and days 21-25 (MC3T3), cells were fixed in 10% neutral buffered formalin and stained with 2% Alizarin Red to visualize calcium deposition. Absorption of alizarin red stain was normalized to total DNA as measured by Hoechst staining of the nuclei.

| Compound | expression of classical osteoclastic markers (Acp5, Clcr, Ctsk) (RAW 264.7 cells) | potency in stimulating matrix mineralization relative to DMSO (MC3T3-E1 cells; MC3T3-E1) | matrix mineralization (Alizarin Red) (MC3T3-E1 cells) | area resorbed by primary mouse osteoclast cultures on ivory discs [1] | bone loss due to estrogen-deficiency [2] | osteogenic differentiation of MC3T3 cells (MC3T3 cells) |
| --- | --- | --- | --- | --- | --- | --- |
| 1-isothiocyanato-5-methanesulfinylpentane [SFN] | no appreciable changes | at least four orders of magnitude more potent than DMSO | increased matrix mineralization | significantly reduced | reduced bone loss | – |
| C[S+](C)[O-] [DMSO, methanesulfinyl methane] | – | – | increased matrix mineralization | – | – | – |
| CCCc1cc(C)[nH]c(=O)c1CNC(=O)c1cc(-c2ccc(N3CCN(C(C)C)CC3)nc2)cc2c1cnn2C(C)C [UNC1999, N-[(6-methyl-2-oxo-4-propyl-1,2-dihydropyridin-3-yl)methyl]-1-(propan-2-yl)-6-{6-[4-(propan-2-yl)piperazin-1-yl]pyridin-3-yl}-1H-indazole-4-carboxamide] | – | – | – | – | – | promotes |
